Data as given in US20100130614A1, “ADMINISTRATION OF ADAPALENE FOR MODULATING THE EXPRESSION OF IL-1ra” (GALDERMA RESEARCH & DEVELOPMENT, priority 2007, published 2010).
Entries after “also recorded” stand apart in the source; their conditions may differ.

How the values were obtained:
IL-1ra [1] = assay: ELISA assay of IL-1ra secreted in culture supernatants of explants of acneic skin; assay type: cell-based, human; details: for secreted amount of IL-1ra: acneic skin explants (n=8), 24 hours; for increase of secreted IL-1ra compared with the control medium: acneic skin explants
Experimental: (§1) A skin biopsy (1×1.5 cm) was obtained from inflammatory papulae of lesions on the back of 8 acneic patients (having received no local treatment for 2 weeks or no general treatment for 1 month, or 3 months with isotretinoin). The fragments sampled were immediately placed in culture.
(§2) The fragments of healthy skin and of acneic skin were incubated at 37° C. in a humid atmosphere and in the presence of 5% CO2 for 24 hours in KGM culture medium without hydrocortisone (PromoCell, Heidelberg, Germany). The culture medium was supplemented with 2 different concentrations of adapalene (Galderma, Sophia Antipolis): 10^−7 M and 10^−6 M. The culture medium alone served as control medium.
(§3) After incubation, the explants were removed from the culture medium and were then frozen in liquid nitrogen for the immunohistochemical study. The culture supernatants were frozen at −80° C. to evaluate the protein secretion using an ELISA assay technique.
(§4) The IL-1ra protein secretion […] in the culture supernatants of the explants of acneic skin and of healthy skin, incubated in the presence or absence of adapalene, was evaluated by means of an ELISA assay using the IL-1ra Cytoscreen detection kit (Biosource Europe S.A., Nivelles, Belgium) and according to the supplier's instructions.
(§5) A mean was established on 8 healthy donors or 8 acneic patients in each of the “control”, “10^−7 M adapalene” and “10^−6 M adapalene” groups.
(§6) The paired Wilcoxon test was employed for the statistical analysis, and p<0.05 (by comparison with the control medium) was considered to be significant.

free radicals = details: cited from earlier work
IL-1ra [2] = assay: Immunohistochemistry of IL-1ra expression in explants of healthy human skin; assay type: cell-based; details: for intensity of expression of IL-1ra / intensity of expression of IL-1ra in the epidermis: 24 hours; for intensity of expression of IL-1ra: scale 0-3; for intensity of expression of IL-1ra in the epidermis: healthy donors (n=8), scale 0=none to 3=strong, mean (+/−)
Experimental: (§7) Fragments of healthy skin from 8 healthy donors were obtained from mammary plasties (plastic surgery) or from a foreskin (infant surgery).
as §2, §3
(§8) The expression of IL-1ra was evaluated by an immunoperoxidase technique in the explants of healthy skin from 8 healthy donors and of the acneic skin from 8 patients.
For this, cryostat sections 5 μm thick were cut from the skin explants, and were then fixed in acetone at 4° C. for 10 minutes. After saturation of the nonspecific sites with bovine albumin (BSA) for 30 minutes at ambient temperature, the slides were incubated for 30 minutes at ambient temperature and in a humid atmosphere in the presence of the corresponding primary antibody [anti-IL-1ra monoclonal antibody at 10 μg/ml (R&D Systems)] or of an irrelevant isotype antibody for the negative control (normal goat IgG at (R&D Systems), IgG2a monoclonal antibody (DAKO, Trappes, France), IgG1 monoclonal antibody (DAKO)).
After washing for 15 minutes in TBS/0.1% BSA/0.05% Tween 20, the slides were incubated with a biotinylated secondary antibody (DAKO) for 30 minutes at ambient temperature and in a humid atmosphere. After a further washing step, the slides were incubated for 30 minutes in the presence of streptavidin/peroxidise (DAKO) for 30 minutes at ambient temperature and in a humid atmosphere. After a final wash, the slides were incubated for 5 minutes in the presence of AEC (DAKO), a substrate for peroxidise, and then counterstained with Mayer's hemalun. The slides were read under a microscope.
(§9) The slides were read under a Leitz microscope by 2 investigators.
A semi-quantitative scale was used to define the intensity of the labeling: 0=none, 1=weak, 2=medium, 3=strong.
as §5, §6

[3] = system: superficial inflammatory lesions; details: clinically; cited from earlier work
[4] = system: polymorphonuclear neutrophils; details: cited from earlier work
IL-1ra [5] = assay: Immunohistochemistry of IL-1ra expression in explants of acneic skin; assay type: cell-based, human; details: for intensity of expression of IL-1ra in the epidermis: acneic patients (n=8), 24 hours, scale 0-3
Experimental: as §1, §2, §3, §8
For this, cryostat sections 5 μm thick were cut from the skin explants, and were then fixed in acetone at 4° C. for 10 minutes. […]
After washing for 15 minutes in TBS/0.1% BSA/0.05% Tween 20, the slides were incubated with a biotinylated secondary antibody (DAKO) for 30 minutes at ambient temperature and in a humid atmosphere. […] The slides were read under a microscope.
as §9
A semi-quantitative scale was used to define the intensity of the labeling: 0=none, 1=weak, 2=medium, 3=strong. […]

RARγ = target: T1, RARγ (Homo sapiens, UniProt P13631); details: cited from earlier work
T1 sequence (P13631 1-454): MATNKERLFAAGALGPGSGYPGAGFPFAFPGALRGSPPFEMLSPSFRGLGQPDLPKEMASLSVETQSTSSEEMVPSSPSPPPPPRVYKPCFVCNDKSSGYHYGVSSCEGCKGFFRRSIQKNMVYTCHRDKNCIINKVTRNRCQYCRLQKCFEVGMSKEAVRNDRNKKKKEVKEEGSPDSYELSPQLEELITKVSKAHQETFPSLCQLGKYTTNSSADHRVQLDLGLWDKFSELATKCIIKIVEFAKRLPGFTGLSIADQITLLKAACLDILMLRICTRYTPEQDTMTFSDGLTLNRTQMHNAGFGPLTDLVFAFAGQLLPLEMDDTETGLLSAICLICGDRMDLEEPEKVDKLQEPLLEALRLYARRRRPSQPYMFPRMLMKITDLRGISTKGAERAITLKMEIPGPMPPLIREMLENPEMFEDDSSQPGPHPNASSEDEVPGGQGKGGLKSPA

IL-1ra [6] = assay: ELISA assay of IL-1ra secreted in culture supernatants of explants of healthy skin; assay type: cell-based, human; details: for amount of IL-1ra secreted in the culture supernatants: healthy skin explants (n=8), 24 hours
Experimental: as §7, §2, §3, §4, §5, §6

RARβ = target: T2, RARβ (Homo sapiens, UniProt P10826); details: cited from earlier work
T2 sequence (P10826 1-455): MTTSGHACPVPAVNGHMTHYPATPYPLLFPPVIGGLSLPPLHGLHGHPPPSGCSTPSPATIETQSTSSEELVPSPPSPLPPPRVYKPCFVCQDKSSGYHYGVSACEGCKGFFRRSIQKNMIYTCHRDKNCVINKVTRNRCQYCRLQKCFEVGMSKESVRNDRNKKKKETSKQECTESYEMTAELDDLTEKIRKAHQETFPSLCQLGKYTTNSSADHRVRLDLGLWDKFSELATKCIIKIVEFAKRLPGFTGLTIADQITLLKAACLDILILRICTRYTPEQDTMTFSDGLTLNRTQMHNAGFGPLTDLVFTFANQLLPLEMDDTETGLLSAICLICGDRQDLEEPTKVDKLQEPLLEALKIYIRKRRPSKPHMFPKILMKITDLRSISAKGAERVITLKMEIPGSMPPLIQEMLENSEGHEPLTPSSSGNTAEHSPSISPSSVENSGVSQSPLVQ

[7] = system: cellular retinoic acid binding proteins; details: cited from earlier work
lipoxygenase pathway = details: cited from earlier work

COc1ccc(-c2ccc3cc(C(=O)O)ccc3c2)cc1C12CC3CC(CC(C3)C1)C2 [adapalene, 6-[3-(1-adamantyl)-4-methoxyphenyl]-2-naphthoic acid]
secreted amount of IL-1ra (IL-1ra [1]; 10^−6 M adapalene): 1161 pg | secreted amount of IL-1ra (IL-1ra [1]; 10^−7 M adapalene): 1196 pg | increase of secreted IL-1ra compared with the control medium (IL-1ra [1]; 10^−6 M adapalene): 1.4% | increase of secreted IL-1ra compared with the control medium (IL-1ra [1]; 10^−7 M adapalene): 4.4% | production of free radicals (in words) (free radicals): inhibits | intensity of expression of IL-1ra (IL-1ra [2]; 1st subgroup of healthy donors (n=4, weak control expression), 10^−6 M adapalene): 1.2 (+/−0.4) | intensity of expression of IL-1ra (IL-1ra [2]; 1st subgroup of healthy donors (n=4, weak control expression), 10^−7 M adapalene): 1.1 (+/−0.4) | modulatory effect on the expression of IL-1ra (in words) (IL-1ra [2]; 1st subgroup of healthy donors, expression in the control medium weak): an inducing effect | intensity of expression of IL-1ra (IL-1ra [2]; 2nd subgroup of healthy donors (n=4, greater control expression), 10^−6 M adapalene): 0.5 (+/−0.0) | intensity of expression of IL-1ra (IL-1ra [2]; 2nd subgroup of healthy donors (n=4, greater control expression), 10^−7 M adapalene): 0.5 (+/−0.0) | modulatory effect on the expression of IL-1ra (in words) (IL-1ra [2]; 2nd subgroup of healthy donors, expression in the control medium greater): an inhibitory effect | intensity of expression of IL-1ra in the epidermis (IL-1ra [2]; 10^−6 M adapalene): 0.8 (+/−0.4) | intensity of expression of IL-1ra in the epidermis (IL-1ra [2]; 10^−7 M adapalene): 0.9 (+/−0.5) | modulatory effect on the expression of IL-1ra in the epidermis (in words) (IL-1ra [2]; mean of 8 healthy donors, 10^−7 M and 10^−6 M): No significant modulation; also recorded: does not demonstrate a modulatory effect | clinical activity on superficial inflammatory lesions (in words) [3]: exhibits an activity | chemotaxis of polymorphonuclear neutrophils (in words) [4]: inhibits | intensity of expression of IL-1ra in the epidermis (IL-1ra [5]; 10^−6 M adapalene): 0.9 (+/−0.7) | intensity of expression of IL-1ra in the epidermis (IL-1ra [5]; 10^−7 M adapalene): 0.8 (+/−0.8) | effect on the expression of IL-1ra in the epidermis (in words) (IL-1ra [5]; acneic patients, 10^−7 M and 10^−6 M): increases the expression | binding to RARγ (in words) (RARγ): binds selectively | amount of IL-1ra secreted in the culture supernatants (IL-1ra [6]; 10^−6 M adapalene): 564 pg | amount of IL-1ra secreted in the culture supernatants (IL-1ra [6]; 10^−7 M adapalene): 600 pg | decrease of secreted IL-1ra compared with the control medium (IL-1ra [6]; healthy skin explants, 10^−6 M adapalene): 3.5% | increase of secreted IL-1ra compared with the control medium (IL-1ra [6]; healthy skin explants, 10^−7 M adapalene): 2.6% | binding to RARβ (in words) (RARβ): binds selectively | binding to cellular retinoic acid binding proteins (in words) [7]: does not, on the other hand, bind | oxidative metabolism of arachidonic acid via the lipoxygenase pathway (in words) (lipoxygenase pathway): inhibits | production of leukotrienes via the lipoxygenase pathway (in words) (lipoxygenase pathway): inhibits
